According to patent US20090155815A1, “CRYSTAL STRUCTURE OF THE CARBOXYL TRANSFERASE DOMAIN OF HUMAN ACETYL-COA CARBOXYLASE 2 PROTEIN (ACC2 CT) AND USES THEREOF” (priority 2007, published 2009):
Where two headings read alike, the source gives them in different places.

Test system: ACC2 CT
Assay: NADH reverse-coupled assay
Assay type: biochemical, human
Conditions: reverse reaction
Method: In the reverse reaction, ACC2 CT catalyzes the production of Acetyl CoA using malonyl CoA and biocytin as the substrates.
The activity of ACC2 CT in the reverse reaction is measured indirectly by coupling the reaction with two other enzymes, malate dehydrogenase and citrate synthase. Malate dehydrogenase converts NAD+ and malate to produce NADH and oxaloacetate. The acetyl CoA produced by the ACC2 CT reverse reaction and the oxaloacetate produced by the malate dehydrogenase reaction are consumed as the substrates for the citrate synthase reaction. The final products of the citrate synthase reaction are citric acid and CoA, but it is the production of NADH that acts as the readout for the activity of ACC2 CT. The conversion of NAD+ to NADH is detected by reading absorbance at 340 nm.
The final assay conditions are 50 nM ACC2 CT, 1 mM Malonyl CoA, 20 mM Biocytin, 8 mM Malic Acid, 3 mM NAD+, 100 units/mL Malate Dehydrogenase, 20 units/mL Citrate Synthase, 50 mM Hepes pH 7.0, 100 mM NaCl, 0.01% Tween 20, and compounds are used with a 200-fold dilution of 100% DMSO stock for a final concentration of 0.5% DMSO.
Absorbance data is collected at 340 nm and 37° C. for at least 30 minutes. Linear kinetic rates (mOD/min) are used to calculate % inhibition values of the compounds tested.

Row | Km (could not be precisely determined, estimated, read-out: kM of Biocytin) | Km (against 50 nM ACC2/20 mM Biocytin, 37° C., absorbance 340 nm, read-out: kM of Malonyl CoA) | Km (against ACC2/No Biocytin, 37° C., absorbance 340 nm, read-out: kM of Malonyl CoA) | SMILES
1 | ~20000 µM | – | – | N[C@@H](CCCCNC(=O)CCCC[C@@H]1SC[C@@H]2NC(=O)N[C@@H]21)C(=O)O [Biocytin]
2 | – | 160 µM | 130 µM | CC(C)(COP(=O)(O)OP(=O)(O)OC[C@H]1O[C@@H](n2cnc3c(N)ncnc32)[C@H](O)[C@@H]1OP(=O)(O)O)[C@@H](O)C(=O)NCCC(=O)NCCSC(=O)CC(=O)O [Malonyl CoA]
